In article PMC10381533, “Inhibitory Effects of the Fungal Pigment Rubiginosin C on Hyphal and Biofilm Formation in Candida albicans and Candida auris” (Journal of Fungi, 2023):
≈ marks a conversion by molar mass, not a printed value.

How the values were obtained:
C. albicans [DSM 11225] = experiment: MIC assay, C. albicans DSM 11225; assay type: cell-based, Candida albicans; conditions: tested 250–2 µg/mL
Method: (§1) The MICs of rubiginosin- and rutilin-type azaphilones—in detail, Rub A, C, W, Z, and Rut A and B—were determined as described previously using the selected pathogens C. albicans [DSM 11225, DSM 1665], C. albicans CAI-4 HWP1-lacZ [ZK3379] and C. auris [DSM 21092] (see Table S1 for detailed information). All compounds were tested within the concentration range of 250 µg/mL–2 µg/mL for C. albicans [DSM 11225, DSM 1665], C. albicans CAI-4 HWP1-lacZ [ZK3379], C. auris [DSM 21092]. […]
(§2) All compounds were fully dissolved in
(§3) The assay was conducted as a minimum inhibitory concentration (MIC) assay in 96-well round-bottom microtiter plates using the parameters summarized in table S1 and as already described in [2]. Stocks of the test organisms were generated by growing the organisms overnight in 250 mL (Candida albicans [DSM 11225], [DSM 1665], CAI-4 HWP1-lacZ, Candida auris [DSM 21092]) or 50 mL shaking (the rest organisms) flasks filled with 25 mL of the growth medium at 140 rpm (for media and temperatures see table S1). After incubation overnight, the OD of the suspension was measured and adjusted by diluting with the respective growth medium. OD600 nm was adjusted to 0.01 for bacteria and OD600 nm to 0.1 for fungi and 150 μL of the adjusted suspensions were added to all wells of a 96-well microtiter plate (one test organism per plate). Subsequently, additional 130 μL (1 mg/mL tested compounds) or 142.5 μL (10 mg/mL tested compounds ) of suspensions, plus 20 μL (1 mg/mL tested compounds) respectively 7.5 μL (10 mg/mL tested compounds ) of the test compounds were added to first row. C ontrols (one compound/column) were added as well: MeOH were used as solvent control, while different positive controls (reference drugs ) were used for the according test organisms (see table S1). Starting from row A, 150 μL of the suspension were transferred […]
(§4) to the next row, the contents thoroughly mixed, and 150 μL transferred to the following row. The remaining 150 μL after row H were discarded.
(§5) 66.7 μg/mL in row A to 0.52 μg/mL in row H (1 mg/mL tested compounds) or 250 μg/mL in row A to 2 μg/mL in row H (10 mg/mL tested compounds).
(§6) The 96-well microtiter plates were then incubated overnight on a microplate shaker at 800 rpm at 30 or 37 °C (see table S1) and were visually evaluated the next day. The MIC is defined as the lowest concentration where no growth of the test organism was observed. A lower MIC thus corresponds to a higher antimicrobial activity […]
(§7) Table S1: MIC assay experiment parameters.
(§8) Tested organisms Strain No. Growth Incubation Positive control medium temp. [°C ] (reference)
(§9) KB-3-1 (ACC 158) cervix carcinoma as well as L929 (ACC 2) mouse fibroblasts were cultured under standard cell culture conditions (37 °C, 5% CO2, 95% humidified atmosphere). The cells were maintained in high glucose DMEM containing 10% fetal bovine serum and 100 U/mL penicillin and streptomycin (Gibco, Thermo Fisher Scientific, Waltham, USA). Cell lines were serially passaged after trypsinization, using 0.05% trypsin / 0.02% EDTA solution. The cultures were routinely monitored for potential contamination, and only mycoplasma free cultures were used. The test compounds were investigated for their anti-proliferative effect on cell lines, using the 3-(4,5-dimethylthiazol-2-yl)-2,5-diphenyltetrazolium bromide (MTT) based cell viability assay. […]

C. auris [DSM 21092] = experiment: MIC assay, C. auris; assay type: cell-based, Candida auris; conditions: tested 250–2 µg/mL
Method: as §1, §2, §3, §4, §5, §6, §7, §8, §9

C. auris biofilm = experiment: Crystal violet biofilm formation assay, C. auris; assay type: cell-based, Candida auris; conditions: for effect on formation of C. auris biofilms: CV assay, 24 h treatment
Method: The fungal pathogens C. auris [[…]] or C. albicans [DSM 11225] were cultured from stock in 25 mL YPD medium in a 250 mL flask (30 °C, 100 rpm, 18 h). The turbidity of the broth was measured at 280 nm using a spectrophotometer (Nanodrop 2000c, Thermo Fisher Scientific, Waltham, MA, USA) and diluted to match the turbidity of a 0.5 McFarland standard in RPMI 1640 medium (Gibco, New York, NY, USA; Thermo Fisher Scientific), supplemented with […] 3-(N-morpholino)propanesulfonic acid (MOPS, Carl Roth, Karlsruhe, Germany) for C. auris, or 0.05 McFarland standard in RPMI 1640 medium in the case of C. albicans. Subsequently, 150 μL of the fungal dispersion were added into each well of a 96-well microtiter plate (Falcon no. 351172, Thermo Fisher Scientific) and further incubated (37 °C, 150 rpm, 2 h [C. auris] or 90 min [C. albicans]). The supernatant was discarded and the plate was rinsed one time by using a PBS buffer. Afterwards, azaphilones (Rub A, C, W, Z, and Rut A and B) were serially diluted in 150 μL in fresh medium to concentrations of 250–2 μg/mL (Rub C for C. auris: 250–0.02 μg/mL). Methanol (2.5%) was used as a solvent control and both, nystatin (NYS; Thermo Fisher Scientific) and farnesol (FA; Sigma Aldrich, St. Louis, MO, USA) as positive controls (250–2 μg/mL) for C. auris and C. albicans, respectively. Plates were further incubated (37 °C, 150 rpm, 24 h). The supernatant was discarded and biofilms were washed with PBS, stained by adding 150 μL of the crystal violet (CV; Sigma Aldrich) solution (0.1%), and incubated (room temperature, 25 min). Afterwards, the plates were washed twice with PBS buffer. A total of 150 μL ethanol (95%) were applied to dissolve the biofilm-bound CV. The absorbance was measured by a plate reader (Synergy 2, BioTek, Santa Clara, CA, USA) at 570 nm for C. auris or 610 nm for C. albicans. Error bars indicate SD with duplicates in two biological repeats.

[1] = system: C. albicans CAI-4 HWP1-lacZ [ZK3379]; experiment: MIC assay, C. albicans CAI-4 HWP1-lacZ; assay type: cell-based, Candida albicans; conditions: tested 250–2 µg/mL
Method: as §1, §2, §3, §4, §5, §6, §7, §8, §9

C. albicans [DSM 1665] = system: C. albicans [DSM 1665]; set-up: method as in doi:10.1002/ejoc.202001661; conditions: highest tested concentration 250 µg/mL; cited from earlier work

Compound	MIC (C. albicans [DSM 11225])	MIC (C. auris [DSM 21092])	inhibition of C. auris biofilm formation compared to solvent control (= 0%) (C. auris biofilm; 2 µg/mL)	inhibition of C. auris biofilm formation compared to solvent control (= 0%) (C. auris biofilm; 3.9 µg/mL) [%]	inhibition of C. auris biofilm formation compared to solvent control (= 0%) (C. auris biofilm; 7.8 µg/mL) [%]	inhibition of C. auris biofilm formation compared to solvent control (= 0%) (C. auris biofilm; 15.6 µg/mL) [%]	inhibition of C. auris biofilm formation compared to solvent control (= 0%) (C. auris biofilm; 31.3 µg/mL) [%]	inhibition of C. auris biofilm formation compared to solvent control (= 0%) (C. auris biofilm; 62.5 µg/mL) [%]	inhibition of C. auris biofilm formation compared to solvent control (= 0%) (C. auris biofilm; 125 µg/mL) [%]	inhibition of C. auris biofilm formation compared to solvent control (= 0%) (C. auris biofilm; 250 µg/mL) [%]	MIC [1]	MIC (C. albicans [DSM 1665])	effect on formation of C. auris biofilms (C. auris biofilm)
C[C@@H]1[C@H](O)[C@@H](C)/C=C/C=C/CC/C=C/C=C/C=C/C=C/C(O[C@H]2O[C@H](C)[C@@H](O)[C@H](N)[C@@H]2O)CC2O[C@](O)(CC(O)C(O)CCC(O)CC(O)CC(O)CC(=O)O[C@H]1C)CC(O)C2C(=O)O (stereo partly shown) [Nystatin, nystatin]	8.3 µg/mL (≈ 8.96 µM)	31.3 µg/mL (≈ 33.8 µM)	/ ((/) no activity)	60 ±10	42 ±15	47 ±2	50 ±10	53 ±8	45 ±10	56 ±2	8.3 µg/mL (≈ 8.96 µM)	8.3 µg/mL (≈ 8.96 µM)	–
CC(=O)OC/C=C/C1=CC2=C(CO1)C(=O)[C@@](C)(OC(=O)c1c(C)cc(O)cc1O)C(=O)/C2=C\C=C\C1=CC2=C(CO1)C(=O)[C@@](C)(OC(=O)c1c(C)cc(O)cc1O)[C@@H](O)C2 [Rut B, rutilin B]	no antimicrobial activity	no antimicrobial activity	–	–	–	–	–	–	–	–	no antimicrobial activity	no antimicrobial activity	did not affect the formation
CC(=O)OC/C=C/C1=CC2=C(CO1)C(=O)[C@@](C)(OC(=O)c1c(C)cc(O)cc1O)C(=O)/C2=C\C=C\C1=CC2=C(CO1)C(=O)[C@@](C)(O)[C@@H](OC(=O)c1c(C)cc(O)cc1O)C2 [Rut A, rutilin A]	no antimicrobial activity	no antimicrobial activity	–	–	–	–	–	–	–	–	no antimicrobial activity	no antimicrobial activity	did not affect the formation
